Assay: photoluminescence quantum yield (fraction); solvent given as SMILES

With `CN(C)c1ccc(-c2nc(C#N)c(C#N)n2C)cc1` the photoluminescence quantum yield (in C1CCCCC1) was 0.85, the photoluminescence quantum yield (in CC#N) was 0.02 and the photoluminescence quantum yield (in CO) was 0.003. The photoluminescence quantum yield (in ClC(Cl)Cl) was 0.73.

`CC1=CC(/C=C/c2ccc3ccc4cccc5ccc2c3c45)=[N+]2C1=C(c1ccccc1)c1c(C)cc(/C=C/c3ccc4ccc5cccc6ccc3c4c56)n1[B-]2(F)F` gave a photoluminescence quantum yield (in CC1CCCO1) of 0.8.

In the case of `C=Cc1cc2ccccc2oc1=O`, the photoluminescence quantum yield (in CC#N) is reported as 0.08.

`COc1ccc2c3cccc4c(OC)ccc(c5cccc1c52)c43` showed a photoluminescence quantum yield (in C1CCOC1) of 0.88, a photoluminescence quantum yield (in Cc1ccccc1) of 0.76 and a photoluminescence quantum yield (in ClC(Cl)(Cl)Cl) of 0.05. For the same compound, the photoluminescence quantum yield (in ClC(Cl)Cl) was 0.82, the photoluminescence quantum yield (in ClCCl) was 0.94 and the photoluminescence quantum yield (in c1ccncc1) was 0.9.

For `Cc1cc(C)c2nc3c(=O)[nH]c(=O)[nH]c3nc2c1`, the photoluminescence quantum yield (in CC#N) was 0.02.

With `COc1ccc(-c2cc(B(c3c(C)cc(C)cc3C)c3c(C)cc(C)cc3C)c(-c3sc(-c4ccc(OC)cc4)cc3P(=O)(c3ccccc3)c3ccccc3)s2)cc1` the photoluminescence quantum yield (in CO) was 0.55.

Work on `CCn1c2ccccc2c2cc(-c3cc(-c4ccc5c(c4)c4ccccc4n5CC)nc(S(C)(=O)=O)n3)ccc21` yielded a photoluminescence quantum yield (in C1CCOC1) of 0.61, a photoluminescence quantum yield (in CCOC(C)=O) of 0.76 and a photoluminescence quantum yield (in CN(C)C=O) of 0.6. The photoluminescence quantum yield (in Cc1ccccc1) was 0.77 and the photoluminescence quantum yield (in ClCCl) was 0.72.

Work on `CCCCCCCCC1(CCCCCCCC)c2cc3c(cc2-c2sc(-c4ccc(/C=C5\SC(SCC)=NC5=O)c5nsnc45)cc21)C(CCCCCCCC)(CCCCCCCC)c1cc(-c2ccc(/C=C4\SC(SCC)=NC4=O)c4nsnc24)sc1-3` yielded a photoluminescence quantum yield (in C1CCOC1) of 0.053 and a photoluminescence quantum yield (in ClC(Cl)Cl) of 0.059.

In the case of `Cc1ccc(CN2/C(=C/C=C3\CCCC(/C=C/C4=[N+](Cc5ccc(C)cc5)c5ccccc5C4(C)C)=C3Cl)C(C)(C)c3ccccc32)cc1`, the photoluminescence quantum yield (in CCO) is reported as 0.132.

`Cc1cc(C)c(B2c3cc(C)ccc3N3c4ccc(C)cc4B(c4c(C)cc(C)cc4C)c4cc(C)cc2c43)c(C)c1` gave a photoluminescence quantum yield (in Cc1ccccc1-c1cccc(Oc2cc3c4c(c2)Oc2cc(-c5ccccc5C)ccc2B4c2ccc(-c4ccccc4C)cc2O3)c1) of 0.889 and a photoluminescence quantum yield (in ClCCl) of 0.79.

With `CN(C)c1ccc(C2=C(c3ccccc3)c3sc4ccccc4[n+]3[B-](F)(F)O2)cc1` the photoluminescence quantum yield (in C1CCOC1) was 0.01.

Compound `N#Cc1ccc2c(c1)CCc1nc(-c3ccc([N+](=O)[O-])cc3)c3c(c1-2)CCc1cc(C#N)ccc1-3` has a photoluminescence quantum yield (in C1CCOC1) of 0.043, a photoluminescence quantum yield (in CC#N) of 0.039 and a photoluminescence quantum yield (in CCCCCC) of 0.3. It also gave a photoluminescence quantum yield (in CCOC(C)=O) of 0.015, a photoluminescence quantum yield (in CO) of 0.01 and a photoluminescence quantum yield (in CS(C)=O) of 0.073. It also gave a photoluminescence quantum yield (in Cc1ccccc1) of 0.014 and a photoluminescence quantum yield (in ClCCl) of 0.292.

Work on `COc1cc2c(cc1/C=C/C(=C(C#N)C#N)c1ccccc1)c1ccccc1n2C` yielded a photoluminescence quantum yield (in C1CCOC1) of 0.008, a photoluminescence quantum yield (in CC#N) of 0.014 and a photoluminescence quantum yield (in CCO) of 0.012. It also gave a photoluminescence quantum yield (in CCOC(C)=O) of 0.009, a photoluminescence quantum yield (in CN(C)C=O) of 0.022 and a photoluminescence quantum yield (in CO) of 0.012. It also gave a photoluminescence quantum yield (in CS(C)=O) of 0.033, a photoluminescence quantum yield (in Cc1ccccc1) of 0.007 and a photoluminescence quantum yield (in ClC(Cl)Cl) of 0.018. It also gave a photoluminescence quantum yield (in ClCCl) of 0.022.

In the case of `COc1ccc(/C=C/c2ccncn2)cc1`, the photoluminescence quantum yield (in ClCCl) is reported as 0.01.

In the case of `Fc1c(F)c(-n2c3ccccc3c3ccccc32)c(F)c(-n2c3ccccc3c3ccccc32)c1-c1nnc(-c2ccccc2)o1`, the photoluminescence quantum yield (in Cc1ccccc1) is reported as 0.08.

In the case of `COc1ccc(/C=C/c2ccc(-c3ccc(C)cn3)nc2)cc1`, the photoluminescence quantum yield (in CC#N) is reported as 0.28.

Compound `Brc1cc2nc3cc4c5c(cccc5c3nc2cc1Br)C(c1ccccc1)=C(c1ccccc1)O4` has a photoluminescence quantum yield (in ClCCl) of 0.12.
